Where a name gives a salt, the structure may show the parent alone.

The first assay relates to hPSC-SCs.
Conditions: not given
Molecule `CO[C@H](C)[C@](O)(C(=O)OCC1=CCN2CC[C@H](O)[C@@H]12)C(C)C` [Heliotrine] showed a z.score.t of −0.3023.

`C[N+]1(C)CCOC(O)(c2ccc(-c3ccc(C4(O)C[N+](C)(C)CCO4)cc3)cc2)C1.[Br-].[Br-]` (stereo not shown) [Hemicholinium bromide] displayed a z.score.t of −0.07901.

For the molecule `COc1ccc([C@@H]2CC(=O)c3c(O)cc(O[C@@H]4O[C@H](CO[C@@H]5O[C@@H](C)[C@H](O)[C@@H](O)[C@H]5O)[C@@H](O)[C@H](O)[C@H]4O)cc3O2)cc1O` [Hesperidin], the z.score.t is reported as 0.2399. Molecule `C[N+](C)(C)CCCCCC[N+](C)(C)C.O.O.[Br-].[Br-]` [Hexamethonium dibromide dihydrate] yielded a z.score.t of 0.7913. In turn, `CN1CCC2=C[C@H](O)[C@H]3OC(=O)c4cc5c(cc4[C@H]3[C@@H]21)OCO5` [Hippeastrine hydrobromide] displayed a z.score.t of 1.178. `CN1CCCN(C(c2ccccc2)c2ccc(Cl)cc2)CC1` (stereo not shown) [Homochlorcyclizine dihydrochloride]: the z.score.t is on record as −1.66. Same read-out and setting: the same measure for `COc1ccc2c(c1OC)C(=O)O[C@@H]2[C@H]1c2cc3c(cc2CCN1C)OCO3` [Hydrastine hydrochloride]: −0.4139; for `CN1[C@@H]2CC[C@H]1C[C@@H](OC(=O)[C@H](CO)c1ccccc1)C2` [Hyoscyamine (L)]: −0.528.

For the molecule `O=C(NCNC(=O)NC1C(=O)NC(=O)N1CO)NC1C(=O)NC(=O)N1CO` (stereo not shown) [Imidurea], the z.score.t amounted to 1.224.

Turning to `CC(=O)N(CC(O)CN(C(C)=O)c1c(I)c(C(=O)NCC(O)CO)c(I)c(C(=O)NCC(O)CO)c1I)c1c(I)c(C(=O)NCC(O)CO)c(I)c(C(=O)NCC(O)CO)c1I` (stereo not shown) [Iodixanol], the z.score.t is recorded as 0.7539. `CC(C)[N+]1(C)[C@@H]2CC[C@H]1CC(OC(=O)C(CO)c1ccccc1)C2.[Br-]` (stereo partly shown) [Ipratropium bromide] registered a z.score.t of −0.649.

`CC[C@H](C)[C@H]1O[C@]2(CC[C@@H]1C)C[C@@H]1C[C@@H](C/C=C(\C)[C@@H](O[C@H]3C[C@H](OC)[C@@H](O[C@H]4C[C@H](OC)[C@@H](O)[C@H](C)O4)[C@H](C)O3)[C@@H](C)/C=C/C=C3\CO[C@@H]4[C@H](O)C(C)=C[C@@H](C(=O)O1)[C@]34O)O2` [Ivermectin] registered a z.score.t of −1.866. Molecule `CCN1C[C@]2(C)CC[C@H](O)[C@]34C1[C@@H](C[C@H]23)[C@@]1(O)C[C@H](OC)[C@H]2C[C@@H]4[C@@H]1[C@H]2O` [Karakoline] displayed a z.score.t of 1.53. For `COC1=CC(=O)O[C@@H](/C=C/c2ccccc2)C1` [Kawain], the z.score.t is listed as 0.9109. Molecule `Cl.OC1CCCCC1N1CCC(c2ccccc2)CC1` (stereo not drawn) [L(−)-vesamicol hydrochloride] registered a z.score.t of 0.6964.

Still in this assay, the particulars now being: HTS viability of hPSC-SCs in the presence of 30 mM glucose; Prestwick library; Table S4.
Turning to `CC(N)CCCC(C)(C)O` (stereo not shown) [Heptaminol hydrochloride], the z.score.t was found to be 0.7415. Consider `COc1ccc([C@@H]2CC(=O)c3c(O)cc(O)cc3O2)cc1O` [Hesperetin], for which the z.score.t is 1.785. For the molecule `CC[C@H](c1ccc(O)cc1)[C@@H](CC)c1ccc(O)cc1` [Hexestrol], the z.score.t amounted to 0.1469.

With `CCCCC(CC)CN1CN(CC(CC)CCCC)CC(C)(N)C1` (stereo not shown) [Hexetidine], the z.score.t was −1.372. For the molecule `CC(CNC1CCCCC1)OC(=O)c1ccccc1` (stereo not shown) [Hexylcaine hydrochloride], the z.score.t is on record as −0.6194. On to `CC1CC(OC(=O)c2ccccc2O)CC(C)(C)C1` (stereo not shown) [Homosalate], for which the z.score.t is given as −0.751.

Turning to `CCN(CC)CCNc1ccc(CO)c2sc3ccccc3c(=O)c12` [Hycanthone], the z.score.t is recorded as −0.2904. As for `NNc1nncc2ccccc12` [Hydralazine hydrochloride], the z.score.t is on record as 1.472. `CN1CCc2cc3c(cc2C1O)OCO3` (stereo not shown) [Hydrastinine hydrochloride]: the z.score.t was 1.785. In the case of `NS(=O)(=O)c1cc2c(cc1Cl)NCNS2(=O)=O` [Hydrochlorothiazide], the z.score.t was determined as 0.1742. Same read-out and setting: the same measure for `C[C@]12CCC(=O)C=C1CC[C@@H]1[C@@H]2[C@@H](O)C[C@@]2(C)[C@H]1CC[C@]2(O)C(=O)CO` [Hydrocortisone base]: 1.76; for `COc1c2c(cc3c1OCO3)CCN(C)C2` [Hydrocotarnine hydrobromide]: 1.168; for `NS(=O)(=O)c1cc2c(cc1C(F)(F)F)NCNS2(=O)=O` [Hydroflumethiazide]: −0.1092.

For the molecule `CC[C@H]1CN2CC[C@H]1C[C@H]2[C@H](O)c1ccnc2ccc(OC)cc12` [Hydroquinine hydrobromide hydrate], the z.score.t was determined as 0.1131.

In the case of `OCCOCCN1CCN(C(c2ccccc2)c2ccc(Cl)cc2)CC1` (stereo not shown) [Hydroxyzine dihydrochloride], the z.score.t was −0.3011. In the case of `Cc1cc(=O)oc2cc(O)ccc12` [Hymecromone], the z.score.t came out at 0.9525. Take `c1ccc2c(c1)OCC(C1=NCCN1)O2` (stereo not shown) [Idazoxan hydrochloride]: the z.score.t was −0.03362. Same read-out and setting: in the case of `O=c1[nH]c(=O)n([C@H]2C[C@H](O)[C@@H](CO)O2)cc1I` [Idoxuridine] it was 0.8757; in that of `O=P1(NCCCl)OCCCN1CCCl` (stereo not shown) [Ifosfamide], 0.1469; in that of `C[C@@H](O)[C@H]1C(=O)N2C(C(=O)O)=C(SCCN=CN)C[C@H]12` [Imipenem], 0.767. `CN(C)CCCN1c2ccccc2CCc2ccccc21` [Imipramine hydrochloride]: the z.score.t was −0.7013.

Take `CC1Cc2ccccc2N1NC(=O)c1ccc(Cl)c(S(N)(=O)=O)c1` (stereo not shown) [Indapamide]: the z.score.t was found to be 0.02534.

For the molecule `COc1ccc2c(c1)c(CC(=O)O)c(C)n2C(=O)c1ccc(Cl)cc1` [Indomethacin], the z.score.t is listed as 1.045. Consider `CC(C(=O)O)c1ccc(N2Cc3ccccc3C2=O)cc1` (stereo not shown) [Indoprofen], for which the z.score.t turned out to be 0.1916. For `CC(=O)N(CC(C)C(=O)O)c1c(I)cc(I)c(N)c1I` (stereo not shown) [Iocetamic acid], the z.score.t worked out at 0.9178.

Consider `O=C(CCCCC(=O)Nc1c(I)cc(I)c(C(=O)O)c1I)Nc1c(I)cc(I)c(C(=O)O)c1I` [Iodipamide], for which the z.score.t is recorded as 0.5976. For `CC(=O)N(CC(O)CO)c1c(I)c(C(=O)NCC(O)CO)c(I)c(C(=O)NCC(O)CO)c1I` (stereo not shown) [Iohexol], the z.score.t is on record as −0.07901. Regarding `C[C@H](O)C(=O)Nc1c(I)c(C(=O)NC(CO)CO)c(I)c(C(=O)NC(CO)CO)c1I` [Iopamidol], the z.score.t was −1.025. Still for that read-out and setting: the same measure for `CCC(Cc1c(I)cc(I)c(N)c1I)C(=O)O` (stereo not shown) [Iopanoic acid]: 1.279. The same measure, in the same setting: the same measure for `COCC(=O)Nc1c(I)c(C(=O)NCC(O)CO)c(I)c(C(=O)N(C)CC(O)CO)c1I` (stereo not shown) [Iopromide]: −0.5992; for `O=C(NCC(O)CO)c1c(I)c(C(=O)NCC(O)CO)c(I)c(N(CCO)C(=O)CO)c1I` (stereo not shown) [Ioversol]: −0.5789; for `CNC(=O)c1c(I)c(C(=O)NCC(=O)Nc2c(I)c(C(=O)O)c(I)c(C(=O)NCCO)c2I)c(I)c(N(C)C(C)=O)c1I` [Ioxaglic acid]: 1.475. As for `Cc1cc(C(=O)NNCc2ccccc2)no1` [Isocarboxazid], the z.score.t is −0.9569. In the case of `Clc1ccc(C(Cn2ccnc2)OCc2c(Cl)cccc2Cl)c(Cl)c1` (stereo not shown) [Isoconazole], the z.score.t is recorded as −1.91. Regarding `COc1ccc2c(c1O)-c1c(OC)c(OC)cc3c1[C@H](C2)N(C)CC3` [Isocorydine (+)], the z.score.t is recorded as 1.845. The same measure, in the same setting: the same measure for `CC(=O)OCC(=O)[C@@]1(O)CC[C@H]2[C@@H]3CCC4=CC(=O)C=C[C@]4(C)[C@@]3(F)[C@@H](O)C[C@@]21C` [Isoflupredone acetate]: −0.3156; for `CNC(C)CCC=C(C)C.CNC(C)CCC=C(C)C.O=C(O)[C@@H](O)[C@H](O)[C@H](O)[C@@H](O)C(=O)O` [Isometheptene mucate]: 1.27; for `NNC(=O)c1ccncc1` [Isoniazid]: 0.5041. Consider `CC(C)[N+](C)(CCC(C(N)=O)(c1ccccc1)c1ccccc1)C(C)C` [Isopropamide iodide], for which the z.score.t is 0.3675. For `Cc1c(NC(C)C)c(=O)n(-c2ccccc2)n1C.Cl` [Isopyrin hydrochloride], the z.score.t is −0.2359.

Consider `CC1=C(/C=C/C(C)=C/C=C/C(C)=C\C(=O)O)C(C)(C)CCC1` [Isotretinoin], for which the z.score.t is on record as 0.4346. For the molecule `Cc1cc(NC(=O)C2=C(O)c3ccccc3S(=O)(=O)N2C)no1` [Isoxicam], the z.score.t came out at 1.24. For the molecule `CC(COc1ccccc1)NC(C)C(O)c1ccc(O)cc1` (stereo not shown) [Isoxsuprine hydrochloride], the z.score.t is −0.1687. For `COC(=O)C1=C(C)NC(C)=C(C(=O)OC(C)C)C1c1cccc2nonc12` (stereo not shown) [Isradipine], the z.score.t came out at 0.6428.

On to `CO[C@@H]1[C@@H](O[C@@H]2O[C@H](C)[C@@H](O[C@H]3C[C@@](C)(O)[C@@H](OC(=O)CC(C)C)[C@H](C)O3)[C@H](N(C)C)[C@H]2O)[C@@H](CC=O)C[C@@H](C)[C@@H](O)/C=C/C=C/C[C@@H](C)OC(=O)C[C@H]1OC(C)=O` [Josamycin], for which the z.score.t is −0.827. `O=c1c(O)c(-c2ccc(O)cc2)oc2cc(O)cc(O)c12` [Kaempferol]: the z.score.t was −1.014.

With `NC[C@H]1O[C@H](O[C@H]2[C@H](O)[C@@H](O[C@H]3O[C@H](CO)[C@@H](O)[C@H](N)[C@H]3O)[C@H](N)C[C@@H]2N)[C@H](O)[C@@H](O)[C@@H]1O.O=S(=O)(O)O` [Kanamycin A sulfate], the z.score.t stood at 0.07052.

Regarding `CC(=O)N1CCN(c2ccc(OCC3COC(Cn4ccnc4)(c4ccc(Cl)cc4Cl)O3)cc2)CC1` (stereo not shown) [Ketoconazole], the z.score.t came out at 1.669. The same measure, in the same setting: the same measure for `CC(C(=O)O)c1cccc(C(=O)c2ccccc2)c1` (stereo not shown) [Ketoprofen]: −1.014; for `O=C(c1ccccc1)c1ccc2n1CCC2C(=O)O` (stereo not shown) [Ketorolac tromethamine]: 0.8465. As for `CN1CCC(=C2c3ccccc3CC(=O)c3sccc32)CC1` [Ketotifen fumarate], the z.score.t is on record as −0.7415. Take `COc1c2occc2c(OC)c2c(=O)cc(C)oc12` [Khellin]: the z.score.t is 0.7913.
